# Test results from a melting point compilation (Tetko et al.; mined from patent text by program, amines drawn as free bases though some values may be those of a salt).
row,SMILES,melting point [°C]
1,O=C(c1cc(Cl)cc(Cl)c1)N1CCN(Cc2ccccc2)C[C@H]1Cc1c[nH]c2ccccc12,93 to 98
2,C=Cc1ccccc1C1C(C(=O)OC)=C(C)NC(C)=C1C(=O)OC,140 to 148
3,C=C1CC(COc2cccc3ccc(C)nc23)(c2ccc(Cl)cc2)OC1=O (stereo not drawn),129 to 130
4,CN1CC[C@H](CP(=O)(O)O)C[C@@H]1C(=O)O (relative stereo),256 to 260
5,CCC1CC(=O)N(Cc2ccc(N)cc2)N=C1c1ccc(OC)c(OC2CCCC2)c1 (stereo not drawn),109
6,NC1N=C(c2ccccc2)c2ccccc2NC1=O (stereo not drawn),196 to 197
7,C#CCOc1nc(-c2ccc(OC)cc2)n(-c2ccc(OC)cc2)n1,81 to 82
8,COC(=O)/C=C1\CCCCC1n1nc(-c2c(-c3ccccc3)nn3ccccc23)ccc1=O (stereo not drawn),156 to 157
9,COc1cc(C)c(C(=O)c2c(Cl)cncc2Cl)c(OC)c1OC,109 to 111
10,NC(=O)C1CCCN1c1nc(-c2ccccc2)nc2[nH]c(CN3CCC(O)(c4ccccc4)CC3)cc12 (stereo not drawn),234 to 235
11,CCn1c(=O)ccc2cnc(Nc3ccc(O)cc3)nc21,222 to 224
12,CC(C)C[C@@H](C(=O)N1CCN(C(c2ccc(F)cc2)c2ccc(F)cc2)CC1)N1CCOCC1,55 to 63
13,COc1cc(N)c(Cl)cc1Cn1nc(-c2ccc(Cl)c(Cl)c2)oc1=O,196 to 198
14,CC1CC2=CC(=O)CCC2C2C(O)CC3(C)C(O)CCC3C12 (stereo not drawn),163
15,Cc1cc(C)c(C(=O)P(=O)(c2ccccc2)c2ccccc2)c(C)c1Cl,125 to 126
16,COc1cccn2c(=O)c(CCOS(C)(=O)=O)c(C)nc12,180
17,O=C(NC1(C(=O)O)Cc2ccc(Br)cc2C1)c1cn2cc(-c3ccc(Cl)cc3)ccc2n1 (stereo not drawn),328
18,Nc1cccc(-c2ccc(CCN3CCN(C(=O)Cc4ccc(F)cc4)CC3)cc2)n1,143 to 145
19,COC(=O)c1cccc(CC(C)NCC(O)c2ccc(O)c(CO)c2)c1 (stereo not drawn),60 to 70
20,CCOC(=O)c1ncc2[nH]c3c(Br)cc(Br)cc3c2c1COC,98 to 99
21,CCCn1c(=O)c2c(nc(/C=C/c3ccc(OC)c(OC(C)=O)c3)n2C)n(CCC)c1=O,201 to 202
22,CC(=O)OC1CSC(Oc2cnc(-c3ccccc3)c(F)c2)C(OC(C)=O)C1OC(C)=O (stereo not drawn),160 to 162
23,CC(=O)c1ncn(-c2ccccc2)n1,174 to 176
24,O=C(O)C=CC12CC(c3ccccc31)c1ccccc12,220 to 222
25,CCOC(=O)C1=C(N)NC(N)=C(C(=O)OCC)C1c1ccc(SC)cc1,127
26,CCOC(=O)c1ccc(NC2(C(N)=O)CCCCC2)cc1,155 to 157
27,CCCCc1ccc(OC)c(-c2csc(NC(=O)c3ccc(C(=O)N4CCC(N5CCC[C@H]5CO)CC4)cc3)n2)c1,199
28,CCCCN1C(=O)CC(C2C(=O)N(CCCC)C(=O)C2c2cc(C(C)(C)C)c(O)c(C(C)(C)C)c2)C1=O (stereo not drawn),151 to 153

row,SMILES,melting point [°C]
1,CN(C)C=C1Nn2c(nc(-c3ccc([N+](=O)[O-])o3)c2N)S1,304
2,O=C1[C@H]2CCC[C@H]2Nc2ccccc2N1Cc1ccc2ccccc2c1 (relative stereo),148
3,CCC(=O)OCc1ccc2oc(=O)c(C(=O)Oc3cncc(Cl)c3)cc2c1,156 to 158
4,Cc1ccnc2c1C(=O)CC(c1sc(Cl)cc1Cl)C2 (stereo not drawn),109 to 111
5,CCOC(=O)c1ccccc1OC,75 to 76
6,Nc1ccc(CNC(=O)OCc2ccccc2)cc1,60 to 64
7,CCN(CC)CCCC1CCCN(C(=O)N2c3ccccc3NC(=O)c3cccnc32)C1 (stereo not drawn),123 to 125
8,CCS(=O)(=O)Nc1cc(N=C=S)c(F)cc1Cl,104 to 105
9,COC(=O)CCC(=O)c1ccc(-c2ccccc2F)cc1,75.5 to 77.5
10,COc1ccc(Cc2ccc(C(=O)O)cc2)cc1,152 to 153
11,CC(C)(C)OC(=O)c1ccc2[nH]ccc2c1,91 to 93
12,c1ccc(Oc2cccnc2N2CCNCC2)cc1,56 to 59
13,CC(=O)Nc1ccc(Oc2ccc3nc(COc4ccc(CC5SC(=O)NC5=O)cc4)n(C)c3c2)cc1 (stereo not drawn),92.2 to 95
14,COCCNc1c(S(=O)(=O)C(F)(F)F)c(C#N)nn1-c1c(Cl)cc(C(F)(F)F)cc1Cl,164
15,CC(C)(C)c1cc(C2SCC(=O)N2CCCBr)cc(C(C)(C)C)c1O (stereo not drawn),130 to 131
16,Cn1ccc(=O)c(-c2cccc(C(F)(F)F)c2)c1,122 to 123
17,Cc1cc(C#N)cc(-c2ccc3c(c2)C(C)(C)OC(=S)N3)c1,230 to 231
18,CCCOc1cc(C)c(Cl)c2c(=O)c3ccccc3sc12,116 to 118
19,Cc1nc2c(O)c(C(=O)[C@@H]3OC(C)(C)O[C@H]3c3ccccc3)ccc2n1C,233
20,FC(F)(F)c1cccc2c1[nH]c1c2ccc2cc[nH]c21,> 250
21,CCCCc1nc2cccc(C(=O)OC)c2n1Cc1ccc2nc(-c3ccccc3-c3nnn[nH]3)n(C)c(=O)c2c1,240 to 242
22,CC(S(N)(=O)=O)S(=O)(=O)N1CCCC1 (stereo not drawn),78 to 80
23,CCOC(=O)c1cc2cc(Cl)ccc2n1C,81.5 to 82
24,FC(F)(F)c1cccc(-c2ccn3ncnc3n2)c1,201 to 202
25,CCCCOc1nc(N)c2nc(Br)n(C3CCCCO3)c2n1 (stereo not drawn),148 to 150
26,CC(=O)OC(C)c1nccc2[nH]c(=O)ccc12 (stereo not drawn),185 to 187
27,COc1ccc(C(=CC=Cc2ccc(N(c3ccc(C)cc3)c3ccc(C)cc3)cc2)c2ccc(OC)cc2)cc1,133 to 135

# The next lines start with the values.
row,melting point [°C],SMILES
1,122 to 123,CCOC(=O)c1ccc2nc3sc(C(C)C)cc3c(=O)n2c1
2,200 to 201,COC(=O)Nc1cc(-c2nc(-c3ccco3)no2)ccc1Cl
3,338 to 339,COc1ccccc1-n1c(=O)[nH]c2c(C(N)=O)nc(-c3cccc(C(N)=O)c3)nc21
4,115 to 116,COc1ccc([N+](=O)[O-])cc1C=CC1=NC(C)(C)CO1
5,125 to 126,O=C1c2ccccc2C(=O)N1CCN1CCN(C(c2ccc(F)cc2)c2ccc(F)cc2)CC1
6,100 to 102,O=C(N[C@H]1CCCNC1=O)OCc1ccccc1
7,155 to 165,O=P(O)(c1ccc(S(=O)(=O)c2ccccc2)cc1)c1ccc(S(=O)(=O)c2ccccc2)cc1
8,164 to 165,Nc1ccc(C#Cc2c(F)c(F)nc(F)c2F)cc1
9,178 to 180,CNC(=O)C(NC(=O)OCc1ccccc1)C(N)=O (stereo not drawn)
10,150 to 152,CS(=O)(=O)c1cccc(/C=C/C2=CCN(Cc3ccccc3)CC2)c1
11,206 to 208,CCCC1(CC(=O)O)OCC(=O)c2c1[nH]c1ccccc21 (stereo not drawn)
12,134 to 135,CCN1CCC(n2nc(-c3c(-c4ccccc4)nn4ccccc34)ccc2=O)CC1
13,168,Cc1cc(=O)c(Oc2ccccc2C)c(-c2ccc(S(C)(=O)=O)cc2)o1
14,87 to 92,CC1CCC2C(=O)N(NC(=O)CCc3cc(C(C)(C)C)c(O)c(C(C)(C)C)c3)C(=O)C2C1 (stereo not drawn)
15,165 to 166,O=C1c2cccc3cccc(c23)C(=O)N1CCN1CCN(CCO)CC1
16,305 to 306,N#Cc1ccc(-c2cnc(-c3ccc(C#N)cc3)nc2)cc1
17,92,CC(C)(C)c1csc(N)c1C#N
18,205 to 207,COc1cc(Nc2nc3cccc(-c4ccc(S(C)(=O)=O)cc4)c3o2)cc(OC)c1OC
19,94.8 to 99.1,CCOc1cccc(-c2cc(F)c(NC(=O)c3ccccc3CO)c(F)c2)c1
20,158 to 159,Cc1nc(OCC=C(F)F)c(C#N)c(N2CCc3ccccc3CC2)n1
21,189 to 191,O=C(NC1CCN(CCc2ccc3ccccc3c2)CC1)c1ccccc1
22,118 to 120,CC(=O)NC(CCc1ccc(C(O)CCCCCc2ccccc2)cc1)(CO[Si](C)(C)C(C)(C)C)CO[Si](C)(C)C(C)(C)C (stereo not drawn)

row,melting point [°C],SMILES
1,158,O=S(=O)(Nc1ccccc1NCCOc1ccc(Cl)cc1)c1ccc(Cl)cc1
2,183,NCC#Cc1cnc2c(c1)N(Cc1cc(Cl)ccc1Cl)CCN2
3,135 to 137,O=C(O)CCCN(C(=O)c1ccc(Cl)cc1)c1ccccc1-c1ccccc1
4,176 to 177,CC(c1ccc2c(c1)N(C)c1cc(Cl)ccc1S2)N(O)C(N)=O (stereo not drawn)
5,144 to 146,COc1ccc(CC(NC(C)=O)C(=O)O)cc1 (racemic)
6,164 to 165,CNC(=O)C1Cc2c(n(C)c3ccc(OC)cc23)C1 (stereo not drawn)
7,161 to 162,CCOc1cc(-n2c(=O)cc(C(F)(F)F)[nH]c2=O)c(F)cc1Br
8,139 to 141,CN1CC(=O)N(C(c2ccccc2)c2ccccc2)C1=S
9,162,COCCn1cnc2cc(CN3CCN(C(c4ccccc4)c4ccccc4)CC3)ccc21
10,105,CCC1SC(=O)N(Cc2ccc(N)cc2)N=C1c1ccc(OC)c(OC)c1 (stereo not drawn)
11,172,CC(C)(C)Cc1c(CC(C)(C)C(=O)O)n(Cc2ccc(Cl)cc2)c2ccc(OCc3ccc4ccccc4n3)cc12
12,80,COC(=O)C1Cc2c(OC)cccc2N1S(=O)(=O)c1ccc(-c2ccc(F)cc2Cl)cc1 (stereo not drawn)
13,158 to 162,O=Cc1c[nH]c2ccc3c(c12)CC(O)CO3 (stereo not drawn)
14,137 to 142,Cn1c(CC#N)ccc1C(=O)c1ccc(N)cc1
15,155 to 158,CC(=O)OC1CSC(Oc2cccc3onc(C)c23)C(OC(C)=O)C1OC(C)=O (stereo not drawn)
16,214 to 215,CN1CCN(c2ncnc3oc(-c4ccc(N)cc4)c(-c4ccc(F)cc4)c23)CC1
17,178,Cn1c(=O)cc(-c2cccc(Cl)c2)c2cc(C(O)(c3ccc(Cl)cc3)c3cnccc3Cl)ccc21 (stereo not drawn)
18,62 to 63,CN(C)c1cccc(OCC(=O)NCCO[N+](=O)[O-])c1
19,128 to 130,C=CCC1Cn2c(ncc(C(=O)O)c2=O)-c2cc(OC)ccc21 (stereo not drawn)
20,153 to 154,COC(=O)c1ccccc1CS(=O)(=O)N=c1nc2nc(OC)cc(OC)n2s1
21,210 to 211,O=C(N[C@H](Cc1ccc(C(F)(F)F)cc1)[C@@H](O)c1ccc(F)cc1)c1ccc(F)c2ccccc12 (racemic)
